Data on 19 compounds can be found in patent US11680056B2, “MK2 inhibitors and uses thereof” (Xinthera, Inc., priority 2021, dated 2023).

In one experiment the target is p38a/MK2 (Homo sapiens (Human), UniProt P49137+Q16539). The experiment is described as follows: p38a/MK2 biochemical assay: activation of MK2 by p38, FITC-HSP27 peptide phosphorylation (IMAP FP). The settings on record: 10-point 1:3 dilution, 60 pM active p38a, 1 nM inactive MK2, 10 μM ATP, 2 h incubation.
Another experiment concerns the target p38a/PRAK (Homo sapiens (Human), UniProt Q16539). The experiment is described as follows: p38a/PRAK biochemical assay: activation of PRAK by p38, FITC-HSP27 peptide phosphorylation (IMAP FP). Conditions: 10-point 1:3 dilution, top dose 300 μM, 60 pM active p38a, 1 nM inactive PRAK, 10 μM ATP, 2 h incubation; for IC50: read-out: p38a/PRAK Enzyme pIC50 (converted). In outline:
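GST-tagged MK2 (F46–H400) and PRAK (M1–Q471), expressed in E. coli, activated by p38 and phosphorylate FITC-HSP27 peptide over 2 h with compound; readout by IMAP fluorescence polarisation (ex 485/em 528 nm). Ten-point 1:3 dilutions, top dose 1 μM for MK2 and 300 μM for PRAK. IC50 after vehicle normalisation; selectivity = IC50(PRAK)/IC50(MK2).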

Where [1] appears, read: top dose 1 μM, read-out: p38a/MK2 (1 μM) Enzyme pIC50 (converted).
[2] abbreviates: top dose 10 μM, read-out: p38a/MK2 (10 μM) Enzyme pIC50 (converted).

Where two headings read alike, the source gives them in different places.

p38a/MK2, sequence (P49137 46-400): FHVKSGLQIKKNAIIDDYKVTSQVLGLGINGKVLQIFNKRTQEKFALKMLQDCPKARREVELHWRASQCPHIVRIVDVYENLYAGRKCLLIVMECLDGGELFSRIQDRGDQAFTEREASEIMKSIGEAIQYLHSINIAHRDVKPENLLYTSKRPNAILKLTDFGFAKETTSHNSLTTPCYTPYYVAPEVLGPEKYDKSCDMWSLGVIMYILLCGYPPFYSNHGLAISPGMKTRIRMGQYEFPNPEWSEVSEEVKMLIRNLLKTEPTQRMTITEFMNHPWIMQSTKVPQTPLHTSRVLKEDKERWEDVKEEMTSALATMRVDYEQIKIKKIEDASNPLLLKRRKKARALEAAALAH
p38a/MK2, sequence (Q16539 whole entry): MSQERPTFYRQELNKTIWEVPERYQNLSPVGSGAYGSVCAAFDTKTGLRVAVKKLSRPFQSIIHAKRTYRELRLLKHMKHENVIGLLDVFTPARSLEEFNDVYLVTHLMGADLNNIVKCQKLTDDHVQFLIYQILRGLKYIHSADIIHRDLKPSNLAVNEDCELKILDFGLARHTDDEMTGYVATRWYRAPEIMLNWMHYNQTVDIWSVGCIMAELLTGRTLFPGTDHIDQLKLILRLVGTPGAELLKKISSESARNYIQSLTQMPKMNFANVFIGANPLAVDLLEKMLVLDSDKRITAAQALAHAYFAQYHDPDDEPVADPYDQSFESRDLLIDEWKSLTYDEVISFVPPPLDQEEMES
p38a/PRAK, sequence (Q16539 whole entry): as above

Turning to `[2H]C([2H])(Oc1cc(C)n(-c2c(C)cnc(-c3ccnc(CC4(O)CC4)n3)c2F)c(=O)c1Cl)c1ncc(F)cc1F` (single isomer, unassigned) [Example 61B, rel-3-chloro-4-((3,5-difluoropyridin-2-yl)methoxy-d2)-3′-fluoro-2′-(2-((1-hydroxycyclopropyl)methyl)pyrimidin-4-yl)-5′,6-dimethyl-2H-[1,4′-bipyridin]-2-one], the IC50 on p38a/MK2 (setting [1]) was 3.16 nM; on p38a/PRAK, 631 nM.
The corresponding values for `Cc1cnc(-c2cccc(C(C)(C)O)[n+]2[O-])c(F)c1-n1c(C)cc(OCc2ncc(F)cc2F)c(Cl)c1=O` (single isomer, unassigned) [Example 62A, rel-3-chloro-4-((3,5-difluoropyridin-2-yl)methoxy)-3′-fluoro-6″-(2-hydroxypropan-2-yl)-5′,6-dimethyl-2-oxo-2H-[1,4′:2′,2″-terpyridine] 1″-oxide] are 1.58 nM and 794 nM.
With `Cc1cnc(-c2cccc(C(C)(C)O)[n+]2[O-])c(F)c1-n1c(C)cc(OCc2ncc(F)cc2F)c(Cl)c1=O` (single isomer, unassigned) [Example 62B, rel-3-chloro-4-((3,5-difluoropyridin-2-yl)methoxy)-3′-fluoro-6″-(2-hydroxypropan-2-yl)-5′,6-dimethyl-2-oxo-2H-[1,4′:2′,2″-terpyridine] 1″-oxide], the IC50 on p38a/MK2 (setting [1]) is over 100 nM; at p38a/PRAK, over 316000 nM.
The corresponding values for `Cc1cnc(-c2cccc(C(C)(C)O)n2)c(F)c1-n1c(C)cc(OCc2ncc(F)cc2F)c(Cl)c1=O` (single isomer, unassigned) [Example 63A, rel-3-chloro-4-[(3,5-difluoropyridin-2-yl)methoxy]-1-[3-fluoro-6′-(2-hydroxypropan-2-yl)-5-methyl-[2,2′-bipyridin]-4-yl]-6-methylpyridin-2-one] are over 100 nM and over 316000 nM.
As to `Cc1cnc(-c2cccc(C(C)(C)O)n2)c(F)c1-n1c(C)cc(OCc2ncc(F)cc2F)c(Cl)c1=O` (single isomer, unassigned) [Example 63B, rel-3-chloro-4-[(3,5-difluoropyridin-2-yl)methoxy]-1-[3-fluoro-6′-(2-hydroxypropan-2-yl)-5-methyl-[2,2′-bipyridin]-4-yl]-6-methylpyridin-2-one], the results for the IC50 at p38a/MK2 (setting [1]) and at p38a/PRAK were 0.316 nM and 316 nM, respectively.
Turning to `[2H]C([2H])(Oc1cc(C)n(-c2cc(-c3ccnc(C(C)(C)O)c3F)ncc2C)c(=O)c1Cl)c1ncc(F)cc1F` (single isomer, unassigned) [Example 64A, rel-3-chloro-4-[(3,5-difluoropyridin-2-yl)(2H2)methoxy]-1-[3′-fluoro-2′-(2-hydroxypropan-2-yl)-5-methyl-[2,4′-bipyridin]-4-yl]-6-methylpyridin-2-one], the IC50 at p38a/MK2 (setting [1]) was 2 nM; at p38a/PRAK it was 2000 nM.
With `[2H]C([2H])(Oc1cc(C)n(-c2cc(-c3ccnc(C(C)(C)O)c3F)ncc2C)c(=O)c1Cl)c1ncc(F)cc1F` (single isomer, unassigned) [Example 64B, rel-3-chloro-4-[(3,5-difluoropyridin-2-yl)(2H2)methoxy]-1-[3′-fluoro-2′-(2-hydroxypropan-2-yl)-5-methyl-[2,4′-bipyridin]-4-yl]-6-methylpyridin-2-one], the IC50 was over 100 nM at p38a/MK2 (setting [1]) and over 316000 nM on p38a/PRAK.
Regarding `[2H]C([2H])(Oc1cc(C)n(-c2c(C)cnc(-c3ccnc(C(C)(C)O)c3F)c2F)c(=O)c1Cl)c1ncc(F)cc1F` (single isomer, unassigned) [Example 65A, rel-3-chloro-1-[3,3′-difluoro-2′-(2-hydroxypropan-2-yl)-5-methyl-[2,4′-bipyridin]-4-yl]-4-[(3,5-difluoropyridin-2-yl)(2H2)methoxy]-6-methylpyridin-2-one], the IC50 at p38a/MK2 (setting [1]) was 3.98 nM; on p38a/PRAK it was 200 nM.
The corresponding values for `[2H]C([2H])(Oc1cc(C)n(-c2c(C)cnc(-c3ccnc(C(C)(C)O)c3F)c2F)c(=O)c1Cl)c1ncc(F)cc1F` (single isomer, unassigned) [Example 65B, rel-3-chloro-1-[3,3′-difluoro-2′-(2-hydroxypropan-2-yl)-5-methyl-[2,4′-bipyridin]-4-yl]-4-[(3,5-difluoropyridin-2-yl)(2H2)methoxy]-6-methylpyridin-2-one] are over 100 nM and 79400 nM.
The corresponding values for `[2H]C([2H])([2H])C(O)(c1nccc(-c2ncc(C)c(-n3c(C)cc(OCc4ncc(F)cc4F)c(Cl)c3=O)c2F)n1)C([2H])([2H])[2H]` (single isomer, unassigned) [Example 66A, rel-3-chloro-4-((3,5-difluoropyridin-2-yl)methoxy)-3′-fluoro-2′-(2-(2-hydroxypropan-2-yl-1,1,1,3,3,3-d6)pyrimidin-4-yl)-5′,6-dimethyl-2H-[1,4′-bipyridin]-2-one] are over 100 nM and over 316000 nM.
Taken in the same sequence, the figures for `[2H]C([2H])([2H])C(O)(c1nccc(-c2ncc(C)c(-n3c(C)cc(OCc4ncc(F)cc4F)c(Cl)c3=O)c2F)n1)C([2H])([2H])[2H]` (single isomer, unassigned) [Example 66B, rel-3-chloro-4-((3,5-difluoropyridin-2-yl)methoxy)-3′-fluoro-2′-(2-(2-hydroxypropan-2-yl-1,1,1,3,3,3-d6)pyrimidin-4-yl)-5′,6-dimethyl-2H-[1,4′-bipyridin]-2-one] were 6.31 nM and 1000 nM.
As for `[2H]C([2H])(Oc1cc(C)n(-c2c(C)cnc(-c3ccnc(C(O)(C([2H])([2H])[2H])C([2H])([2H])[2H])n3)c2F)c(=O)c1Cl)c1ncc(F)cc1F` (single isomer, unassigned) [Example 67A, rel-3-chloro-4-((3,5-difluoropyridin-2-yl)methoxy-d2)-3′-fluoro-2′-(2-(2-hydroxypropan-2-yl-1,1,1,3,3,3-d6)pyrimidin-4-yl)-5′,6-dimethyl-2H-[1,4′-bipyridin]-2-one], the IC50 on p38a/MK2 (setting [1]) was 1.58 nM; on p38a/PRAK it was 316 nM.
As for `[2H]C([2H])(Oc1cc(C)n(-c2c(C)cnc(-c3ccnc(C(O)(C([2H])([2H])[2H])C([2H])([2H])[2H])n3)c2F)c(=O)c1Cl)c1ncc(F)cc1F` (single isomer, unassigned) [Example 67B, rel-3-chloro-4-((3,5-difluoropyridin-2-yl)methoxy-d2)-3′-fluoro-2′-(2-(2-hydroxypropan-2-yl-1,1,1,3,3,3-d6)pyrimidin-4-yl)-5′,6-dimethyl-2H-[1,4′-bipyridin]-2-one], the figures for the IC50 on p38a/MK2 (setting [1]) and at p38a/PRAK were 79.4 nM and 31600 nM, respectively.
For the compound `[2H]C([2H])(Oc1cc(C)n(-c2c(C)cnc(-c3cccc(C(C)(C)O)[n+]3[O-])c2F)c(=O)c1Cl)c1ncc(F)cc1F` (single isomer, unassigned) [Example 68B, rel-4′-{3-chloro-4-[(3,5-difluoropyridin-2-yl) (2H2)methoxy]-6-methyl-2-oxopyridin-1-yl}-3′-fluoro-6-(2-hydroxypropan-2-yl)-5′-methyl-[2,2′-bipyridin]-1-ium-1-olate], the IC50 at p38a/MK2 (setting [1]) is 0.2 nM; on p38a/PRAK, 398 nM.
On to `Cc1cnc(-c2cccc([C@@](C)(O)CO)n2)cc1-n1c(C)cc(OCc2ncc(F)cc2F)c(Cl)c1=O` (stereo in doubt) [Example 36A, rel-3-chloro-4-[(3,5-difluoropyridin-2-yl)methoxy]-2′-[6-(1,2-dihydroxypropan-2-yl)pyridin-2-yl]-5′,6-dimethyl-[1,4′-bipyridin]-2-one], for which the “p38a/MK2 (1 μM) Enzyme pIC50” value at p38a/MK2 (top dose 1 μM) was 8.3. The “p38a/PRAK Enzyme pIC50” value on p38a/PRAK was 5.3.
As to `Cc1cnc(-c2ccnc(C(C)(C)O)n2)cc1-c1c(C)cc(OCc2ncc(F)cc2F)c(Cl)c1F` [Example 1, 2-[4-(4-{3-chloro-4-[(3,5-difluoropyridin-2-yl)methoxy]-2-fluoro-6-methylphenyl}-5-methylpyridin-2-yl)pyrimidin-2-yl]propan-2-ol], the “p38a/MK2 (10 μM) Enzyme pIC50” value on p38a/MK2 (top dose 10 μM) is on record as 5.2. Besides, the IC50 on p38a/PRAK is over 316000 nM.
Turning to `Cc1sc(-c2ccnc(C(C)(C)O)n2)nc1-n1c(C)cc(OCc2ncc(F)cc2F)c(Cl)c1=O` [Example 17, 3-chloro-4-[(3,5-difluoropyridin-2-yl)methoxy]-1-{2-[2-(2-hydroxypropan-2-yl)pyrimidin-4-yl]-5-methyl-1,3-thiazol-4-yl}-6-methylpyridin-2-one], the IC50 at p38a/MK2 (setting [2]) is 2510 nM; on p38a/PRAK it was 39800 nM.
The corresponding values for `Cc1cnnc(COc2cc(C)n(-c3cc(-c4ccnc(C(C)(C)O)n4)ncc3C)c(=O)c2Cl)c1` [Example 28A, rel-3-chloro-2′-[2-(2-hydroxypropan-2-yl)pyrimidin-4-yl]-5′,6-dimethyl-4-[(5-methylpyridazin-3-yl)methoxy]-[1,4′-bipyridin]-2-one] are 3980 nM and over 316000 nM.
`Cc1cnc(-n2ccc(C(=O)NC3CC3)n2)cc1-n1c(C)cc(OCc2ncc(F)cc2F)c(Cl)c1=O` [Example 44A, rel-1-{3-chloro-4-[(3,5-difluoropyridin-2-yl)methoxy]-5′,6-dimethyl-2-oxo-[1,4′-bipyridin]-2′-yl}-N-cyclopropylpyrazole-3-carboxamide]: the IC50 at p38a/MK2 (setting [1]) is 25.1 nM; on p38a/PRAK, 6310 nM.
